The values below are quoted from earlier work in patent publication US20030022813A1, “Treating pain by targeting hyperpolarization-activated, cyclic nucleotide-gated channels” (priority 2001, published 2003).

The subject of this data set is Ih. The note with it: applied intracellularly at 5 or 10 mM; cited from earlier work.

On to `CC[N+](CC)(CC)CC(=O)Nc1c(C)cccc1C` [QX-314], for which the “block of Ih” value is reported as “blocks Ih”.
